In patent US20070233400A1, “Method of calculating environmental risk of a chemical” (AMSTED Industries Incorporated, priority 2006, published 2007):

Legend:
[1] = sand
Excerpt: Mobility it defined as the ability of a chemical to migrate in the environment. Mobility of a chemical in the environment is governed by two factors that include the physical chemistry of the chemical and the physical and chemical characteristics of the geologic environment to which the chemical is released.
To obtain a value to represent the mobility of each compound, two variables are used: Henry's Law constant (H), which focuses on the physical chemistry of the chemical and the retardation factor (R), which focuses on the physical and chemical characteristics of the geological environment. The retardation factor was calculated by first calculating the distribution coefficient using Equation 1. Kd=(Foc)(Koc) where: Kd=distribution coefficient (mL·g^−1); Koc=organic carbon partition coefficient (1/mg); Foc=fraction of organic carbon in soil (mg/mg)
Values for the organic carbon partition coefficient can be obtained from location-specific testing of soil or from various published sources. And the fraction of organic carbon in soil can be obtained from location-specific testing of soil or from various published sources.
Once the distribution coefficient is calculated, the Retardation Factor can be calculated using Equation 2. [formula] where: R is the retardation factor; ρb=bulk density of aquifer matrix (g/cm^3); Kd=distribution coefficient (mL·g^−1); η=effective porosity Henry's Law constant (H) (atm.·mol^−1·m^−3) is a measure of the tendency for organic solutes to volatilize. It is related to vapor pressure (VP) (atm.), molecular weight (MW) (g/mol); and solubility in water (Ws) (g/L) according to Equation (3): H=(VP)/(MW)(Ws) With Henry's Law constant and the retardation factor in place, the mobility of a specific compound is expressed as Equation (4): M=(H)(R) where: M=mobility; H=Henry's Law constant; R=retardation factor

[2] = oral pathway; more conservative of carcinogenic or chronic value; published sources; cited from earlier work
[3] = published sources; cited from earlier work

SMILES: c1ccccc1 [benzene]
- mobility factor (M) ([1]; M=(H)(R)): 0.2576
- distribution coefficient (Kd) ([1]; Foc 0.0003 mg/mg, Kd=Foc×Koc): 0.0177 mL/g
- retardation factor (R) ([1]; bulk density 1.8 g/cm^3, effective porosity 0.25): 1.13
- toxicity value (T) [2]: 0.04 mg/kg-day^−1
- Henry's Law constant (H) [3]: 0.228 atm.·mol^−1·m^−3
